# Measurements: ChEMBL document CHEMBL5131451, “BOPPY-based novel fluorescent dopamine D2 and D3 receptor ligands” (Bioorg Med Chem Lett, 2022)
# Experiments:
# [1] = organism: Homo sapiens; test: Ratio of Ki for binding affinity to D2S (unknown origin) to Ki for binding affinity to D3R (unknown origin)
# [2] = biological target: D(2) dopamine receptor (Homo sapiens, UniProt P14416); test: Binding affinity to dopamine D2S receptor (unknown origin) by radioligand displacement assay
# [3] = biological target: D(3) dopamine receptor (Homo sapiens, UniProt P35462); test: Binding affinity to dopamine D3 receptor (unknown origin) by radioligand displacement assay
# Sequence of D(3) dopamine receptor (P35462 whole entry): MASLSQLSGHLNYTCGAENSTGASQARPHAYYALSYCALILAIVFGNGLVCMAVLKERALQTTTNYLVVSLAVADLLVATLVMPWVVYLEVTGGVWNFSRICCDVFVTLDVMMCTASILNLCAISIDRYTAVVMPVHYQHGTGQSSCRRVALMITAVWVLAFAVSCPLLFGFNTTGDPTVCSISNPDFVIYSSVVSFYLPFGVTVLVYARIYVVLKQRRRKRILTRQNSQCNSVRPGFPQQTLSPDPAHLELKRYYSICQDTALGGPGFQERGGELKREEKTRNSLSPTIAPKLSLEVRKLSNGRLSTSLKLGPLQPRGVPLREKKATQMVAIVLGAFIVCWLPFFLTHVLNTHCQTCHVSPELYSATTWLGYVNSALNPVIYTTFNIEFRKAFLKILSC
# Sequence of D(2) dopamine receptor (P14416 whole entry): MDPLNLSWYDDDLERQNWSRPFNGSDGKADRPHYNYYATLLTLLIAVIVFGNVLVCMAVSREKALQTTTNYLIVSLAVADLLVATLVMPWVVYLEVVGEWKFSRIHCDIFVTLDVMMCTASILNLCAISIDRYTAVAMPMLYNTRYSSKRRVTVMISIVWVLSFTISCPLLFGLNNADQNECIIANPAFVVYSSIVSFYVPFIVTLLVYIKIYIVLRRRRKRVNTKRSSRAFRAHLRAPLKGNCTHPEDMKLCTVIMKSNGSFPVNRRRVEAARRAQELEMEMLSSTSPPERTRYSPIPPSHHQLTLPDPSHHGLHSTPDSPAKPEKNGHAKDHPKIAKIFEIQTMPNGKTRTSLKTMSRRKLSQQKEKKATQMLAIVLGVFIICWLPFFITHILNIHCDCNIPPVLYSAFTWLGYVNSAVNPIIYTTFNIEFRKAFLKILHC
SMILES,Ratio Ki [1],Ki [2] [µM],Ki [3] [µM]
CCc1c(C)c2n(c1C)[B-](F)(F)[N+]1=C3C=CC=C(NCCCCN4CCN(c5ccccc5OC)CC4)N3[B-](F)(F)[N+]1=C2,9.5,0.309,0.0343
COc1ccccc1N1CCN(CCCCNC2=CC=CC3=[N+]4[N+](=Cc5c(C)cc(C)n5[B-]4(F)F)[B-](F)(F)N23)CC1,3,0.0811,0.0272

# Further molecules by falling Ki [2], results first:
Ratio Ki [1],Ki [2] [µM],Ki [3] [µM],SMILES
9,0.497,0.0521,CCc1c(C)c2n(c1C)[B-](F)(F)[N+]1=C3C=CC=C(NCCCCN4CCN(c5cccc(Cl)c5Cl)CC4)N3[B-](F)(F)[N+]1=C2
14.6,0.328,0.0225,Cc1cc(C)n2c1C=[N+]1[N+](=C3C=CC=C(NCCCCN4CCN(c5cccc(Cl)c5Cl)CC4)N3[B-]1(F)F)[B-]2(F)F
10.9,0.182,0.0167,COc1ccccc1N1CCN(CCCCNC2=CC=CC3=[N+]4[N+](=Cc5cc6ccccc6n5[B-]4(F)F)[B-](F)(F)N23)CC1
